# How the values were obtained:
# STAT3 protein = test: Western blotting of separated liver tissue treated with laminin; format: cell-based, mouse; settings: FIG. 26B
# Procedure: Particularly, a lysis buffer [50 mM Tris-HCl (pH 7.4), 1% NP40, 0.25% sodium dioxycholate, 150 mM NaCl, 1 mM EDTA], SDS (sodium dodecyl sulfate), Na3O4V and protease inhibitor cocktail (GenDepot) were added to the obtained liver tissue, which was left at 4° C. for 15 minutes to lyse the tissue. The lysate was centrifuged for 30 minutes under the conditions of 13,000 rpm and 4° C. to obtain a supernatant. The proteins present in the supernatant were quantified using BCA reagent (Thermo Scientifics). 4× sample buffer [4 ml of 100% glycerol, 2.4 ml of Tris-HCl (pH 6.8), 0.8 g of SDS, 4 mg of brominated phenol blue, 0.4 ml of β-mercaptoethanol and 3.1 ml of H2O, final volume: 10 ml] was added thereto, which was boiled at 100° C. for 5 minutes. SDS-PAGE was performed, and the proteins were transferred to a nitrocellulose membrane (Whatman). The membrane was pretreated in a solution containing 5% skim milk for 1 hour, and reacted with the antibodies against laminin (Abcam, UK), ACC1 (Cell Signalling, USA), SREBP1 precursor (Santa cruz, USA), mature SREBP1 (Santa cruz, USA), MTP (Santa cruz, USA), PPARα (Santa cruz, USA), pY^706STAT3 (Millipore, USA), STAT3 (Santa cruz, USA), α-tubulin (Sigma, USA) and TM4SF5 (J Clin Invest. 2008 April; 118(4): 1354-66) as the primary antibodies at 4° C. for 15 hours. […]
# TM4SF5 gene = test: TM4SF5 shRNA in differentiated 3T3-L1 adipocytes (oil red O staining, real-time PCR); format: cell-based, mouse
# Procedure: To confirm whether the fat production was suppressed when the expression of TM4SF5 protein was suppressed in adipocytes, oil red O staining was performed.
# First, mouse 3T3-L1 adipocyte progenitor cells were prepared by culturing in DMEM supplemented with 10% NBCS (Gibco, 16010159) and 1% penicillin/streptomycin. The prepared cells were distributed in a 6-well plate at the density of 1×10^5/well.
# After 4 days of the distribution, when the progenitor cells were full in the wells, the cells were further cultured for 48 hours. Then, the medium was replaced with the adipocyte differentiation medium (MDI medium containing 10% FBS) supplemented with 1 μM dexamethasone, 0.5 mM IBMX (3-Isobutyl-1-methylxanthine) and 10 μg/m ? of insulin (Sigma, USA). After culturing the cells for 2 days, the medium was replaced with DMEM supplemented with 10% FBS and 10 μg/m ? of insulin. After replacing with the medium, the cells were cultured for 10 days, and then cultured using DMEM supplemented with 10% FBS and 1% penicillin/streptomycin to obtain differentiated adipocytes. The adipocytes were transfected with TM4SF5 shRNA (shTM4SF5, 5′-[…]-3′, SEQ. ID. NO: 35) using lipofectamine 3000.
# Whether the expression of the fat-related gene changed when the expression of TM4SF5 gene was suppressed was confirmed by the following method. […]
# TM4SF5 protein = test: shTM4SF5 in hepatocytes of the liver disease model mouse, Western blotting; format: cell-based; settings: FIG. 25
# Excerpt: First, hepatocytes were obtained from the isolated liver tissue as described above. The expressions of TM4SF5 and STAT3 proteins in the obtained hepatocytes were suppressed by transfecting the cells with shTM4SF5 or silencing STAT3 [On-Target plus SMART pool siRNA (Thermo)], and then the expression changes of laminin were confirmed by Western blotting as described above.
substance,measurement,setting,value
laminin,expression level of STAT3 protein,STAT3 protein,not changed
"shTM4SF5: TM4SF5 shRNA, 5′-CCTGGAATGTGACGCTCTTCTCGCTGCTG-3′, SEQ. ID. NO: 35 (listed as DNA, chemistry not fully specified)","production of fat, oil red O staining",TM4SF5 gene; FIG. 6A,inhibited
same,"expressions of Pparγ, CD36, Fasn, Srebp1 and Fabp1 genes",TM4SF5 gene; FIG. 6B,suppressed
same,expression of laminin protein,TM4SF5 protein,suppressed
